Experiments:
[1] = Dehydration reaction (lactam formation) in a dried state at 105° C.; type: physicochemical; conditions: 105° C. over 2-3 hours
Description: In other words, in the 4-amino-3-substituted-butanoic acid derivative wherein the substituent at the 3-position thereof has a bulky structure, the dehydration reaction could easily be brought about between the amino group and the carboxyl group within the molecule.

[2] = Stability of baclofen granular powders (wet admixture), dehydrated condensate content by HPLC (Example 11); type: physicochemical; conditions: solid
Description: In this Example and the following Example, a content of the dehydrated condensate thus formed is expressed in terms of % by weight, based on baclofen.
In this Example, the stabilization of baclofen according to the wet admixture with the amino acid was tested for the following Samples (ag) and (ah) of baclofen.
1) Sample (ag) was prepared by wetting 200 mg of baclofen crystals with 0.1 mL of water, forming granular powders by means of a mortar and then drying.
2) Sample (ah) was prepared by wetting 200 mg of baclofen crystals with 0.1 mL of a 2% aqueous solution of L-isoleucine, forming granular powders by means of a mortar and then drying. • Samples (ag) and (ah) prepared as described above and untreated baclofen crystals were stored under the conditions as defined in the following Table 13 and then a content of the dehydrated condensate formed in each of the samples was determined by means of HPLC.

[3] = Stability of compacted pregabalin powders, dehydrated condensate content by HPLC (Example 9); type: physicochemical; conditions: solid
Description: 3) Sample (v) was prepared by dissolving 1 g of pregabalin crystals and 1.47 g of L-valine in water to make up a total volume of 50 mL. • Samples (t), (u) and (v) prepared as described above were stored under the conditions as defined in the following Table 10 and then a content of the dehydrated condensate formed in each of the aqueous solutions was determined by means of HPLC. In this Example and the following Examples, a content of the dehydrated condensate formed is expressed in terms of % by weight, based on pregabalin.
This Example will illustrate the preparation of a stabilized solid pharmaceutical preparation of pregabalin by the addition of the amino acid to pregabalin according to the dry admixture.
1) 1 g of pregabalin crystals was prepared to powdery Sample (aa) in a compacted state by means of a mortar.
2) 1 g of pregabalin crystals was blended with 10 mg of magnesium stearate by means of a mortar to prepare mixed powdery Sample (ab) in a compacted state.
3) 1 g of pregabalin crystals was blended with 30 mg of talc by means of a mortar to prepare mixed powdery Sample (ac) in a compacted state.
4) 1 g of pregabalin crystals was blended with 30 mg of L-leucine by means of a mortar to prepare mixed powdery Sample (ad) in a compacted state. • Samples (aa), (ab), (ac) and (ad) prepared as described above and untreated pregabalin crystals were stored under the conditions as defined in the following Table 11 and then a content of the dehydrated condensate formed in each of the samples was determined by means of HPLC.

[4] = Stabilizing effect of amino acids on 4-amino-3-substituted-butanoic acid derivatives

For `NCC(O)CC(=O)O` (stereo not shown) [4-amino-3-hydroxy-butanoic acid], which “dehydration reaction (formation of the corresponding lactam form)” value [1] is on record?
Its value is “not brought about”.

What does the source list for `NCC(CC(=O)O)c1ccc(Cl)cc1` (stereo not shown) [Untreated Baclofen]?
content of the dehydrated condensate ([2]; 60° C./1 week (sealed)): 0.36 % by weight, based on baclofen; content of the dehydrated condensate ([2]; 60° C./2 weeks (sealed)): 0.57 % by weight, based on baclofen; content of the dehydrated condensate ([2]; 60° C./3 weeks (sealed)): 0.70 % by weight, based on baclofen; content of the dehydrated condensate ([2]; When initiated): 0.10 % by weight, based on baclofen

Which “content of the dehydrated condensate” value ([3]; 60° C./2 weeks (sealed)) does the source give for `CC(C)CC(CN)CC(=O)O` (stereo not shown) [Untreated Pregabalin, 5-methyl-3-aminomethyl-hexanoic acid] here?
Its value is 0.001 % by weight, based on pregabalin.

What about the “content of the dehydrated condensate” value ([3]; 80° C./1 week (sealed)) of the same molecule?
Its value is 0.006 % by weight, based on pregabalin.

And the “content of the dehydrated condensate” value ([3]; When initiated)?
The value was <0.001 % by weight, based on pregabalin.

Which “stabilizing effect as stabilizer for a 4-amino-3-substituted-butanoic acid derivative” value [4] does the source give for `O=C(O)[C@@H]1C[C@@H](O)CN1` [hydroxyproline] here?
The value was “weak stabilizing effect”.

With `NCCCC(=O)O` [γ-aminobutyric acid] as the molecule, how does the “dehydration reaction (formation of the corresponding lactam form)” value [1] read?
Its value is “not brought about”.

Reference: patent US7309719B1, “Stabilized pharmaceutical preparation of gamma-aminobutyric acid derivatives and process for preparing the same” (Warner Lambert Company, LLC, priority 1998, dated 2007)
